The text below walks through data of PubChem BioAssay (NCI).

“And” between values parts separate entries of the source, which are not always exact repeats. Identical values can stand only once.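 Tested at 5 concentrations; 48 h exposure; 96-well plates; endpoints linearly interpolated, else capped at highest concentration. GI50: concentration for 50% inhibition of growth. At the TGI there is no net growth.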 Where a SMILES comes first, the peptide text is derived from it. [ ]: non-standard residue; d: D form. The star is where a group is joined. NMeF = CN[C@@H](Cc1ccccc1)C(=O)O; NMeV = CN[C@H](C(=O)O)C(C)C; Boc = CC(C)(C)OC(=O)*; OBn = c1ccc(CO*)cc1

Among the test systems are OVCAR-5 ovarian; KM12 colon; A549 NSCLC; OVCAR-3 ovarian; EKVX NSCLC; BT-549 breast; ACHN renal; OVCAR-4 ovarian; A498 renal; SW-620 colon.
Common to all, as to assay: NCI-60 cell line screen, 48 h

For `Cc1[nH]nc2ccc3nc(-c4ccc5[nH]ncc5c4)c4c(c3c12)CCCC4`, the GI50 with OVCAR-5 ovarian was 2.53 µM; in the assay on KM12 colon it was 0.63 µM; in the assay on A549 NSCLC it was 0.932 µM; in the assay on OVCAR-3 ovarian, 2.07 µM; with EKVX NSCLC, 2.95 µM; with BT-549 breast it was 1.1 µM. In addition, the GI50 in the assay with ACHN renal was 0.367 µM; with OVCAR-4 ovarian, 2.12 µM; in the assay with A498 renal, 0.28 µM; with SW-620 colon, 0.494 µM. Also, the TGI in the assay on OVCAR-5 ovarian worked out at 13.9 µM; in the assay on KM12 colon it was 13.6 µM; in the assay on A549 NSCLC, 12.4 µM; in the assay on OVCAR-3 ovarian, 10.6 µM; in the assay with EKVX NSCLC it was 25.7 µM; in the assay on BT-549 breast, 8.8 µM. In addition, the TGI in the assay on ACHN renal was 12.9 µM; with OVCAR-4 ovarian it was 28 µM; with A498 renal, 1.8 µM; in the assay with SW-620 colon it was 8.79 µM.

Regarding `COc1nc(N)nc2c1ncn2[C@@H]1O[C@H](CO)[C@@H](O)[C@@H]1O`, the GI50 with OVCAR-5 ovarian, in the assay on KM12 colon, in the assay on A549 NSCLC, in the assay on OVCAR-3 ovarian, in the assay on EKVX NSCLC and in the assay with BT-549 breast was over 100 µM throughout. In addition, the GI50 in the assay with ACHN renal, with OVCAR-4 ovarian, with A498 renal and with SW-620 colon was over 100 µM throughout. The TGI with OVCAR-5 ovarian, in the assay with KM12 colon, with A549 NSCLC, in the assay on OVCAR-3 ovarian, in the assay with EKVX NSCLC and in the assay with BT-549 breast was over 100 µM throughout. Also, the TGI in the assay with ACHN renal, with OVCAR-4 ovarian, in the assay on A498 renal and in the assay on SW-620 colon was over 100 µM in each case.

As to `COc1ccc2c(c1)/C(=C\c1c(Cl)n(C)c3ccccc13)C(=O)N2`, the GI50 with OVCAR-5 ovarian is 3.94 µM; in the assay with KM12 colon it was 9.06 µM; in the assay on A549 NSCLC it was 0.818 µM; in the assay with OVCAR-3 ovarian, 0.633 µM; with EKVX NSCLC it was 3.95 µM; with BT-549 breast, 1.29 µM. Further, the GI50 in the assay with ACHN renal is 1.6 µM; in the assay with OVCAR-4 ovarian, 7.07 µM; with A498 renal, 0.611 µM; in the assay on SW-620 colon, 1.13 µM. The TGI in the assay on OVCAR-5 ovarian was 15.3 µM; in the assay on KM12 colon it was 26.4 µM; with A549 NSCLC, over 100 µM; with OVCAR-3 ovarian it was 1.91 µM; in the assay with EKVX NSCLC it was 24.4 µM; in the assay on BT-549 breast it was 16.4 µM. Moreover, the TGI in the assay on ACHN renal is 16.2 µM; in the assay with OVCAR-4 ovarian, over 100 µM; with A498 renal, 4.31 µM; with SW-620 colon it was 17.1 µM.

For `CS(=O)(=O)c1ccc(Oc2cc(F)cc(C#N)c2)c2c1[C@H](O)C(F)(F)C2`, the GI50 in the assay on OVCAR-5 ovarian, in the assay with KM12 colon, with A549 NSCLC, with OVCAR-3 ovarian, with EKVX NSCLC and in the assay on BT-549 breast was over 100 µM throughout. Also, the GI50 in the assay on ACHN renal, in the assay with OVCAR-4 ovarian, in the assay with A498 renal and in the assay with SW-620 colon was over 100 µM throughout. The TGI in the assay with OVCAR-5 ovarian, with KM12 colon, with A549 NSCLC, with OVCAR-3 ovarian, with EKVX NSCLC and with BT-549 breast was over 100 µM in each case. Further, the TGI in the assay on ACHN renal, in the assay on OVCAR-4 ovarian, with A498 renal and in the assay with SW-620 colon was over 100 µM throughout.

Consider `O=C(NCCNc1nccc(-c2c(-c3ccc(F)cc3)nc3sccn23)n1)c1ccccc1`, for which the GI50 with OVCAR-5 ovarian is 18.1 µM; with KM12 colon, 7.6 µM; with A549 NSCLC, 4.11 µM; in the assay on OVCAR-3 ovarian, 16.2 µM; in the assay with EKVX NSCLC, 7.51 µM; in the assay with BT-549 breast it was 14.3 µM. The GI50 with ACHN renal was 2.98 µM; with OVCAR-4 ovarian it was 15.1 µM; in the assay on A498 renal, 15.1 µM; with SW-620 colon, 7.44 µM. In addition, the TGI in the assay on OVCAR-5 ovarian is 99.3 µM; in the assay on KM12 colon it was 22.4 µM; in the assay on A549 NSCLC it was 96.7 µM; in the assay with OVCAR-3 ovarian, over 100 µM; in the assay with EKVX NSCLC it was 56.1 µM; in the assay on BT-549 breast, 34 µM. Further, the TGI in the assay with ACHN renal is 49.2 µM; in the assay with OVCAR-4 ovarian, 71.7 µM; in the assay on A498 renal, over 100 µM; in the assay with SW-620 colon, 85.6 µM.

Regarding `Brc1ccccc1C=NC12CC3CC(CC(C3)C1)C2`, the TGI in the assay on OVCAR-5 ovarian, with KM12 colon, in the assay with A549 NSCLC, in the assay with OVCAR-3 ovarian, in the assay on EKVX NSCLC and with BT-549 breast was over 100 µM each time. The TGI in the assay with ACHN renal, with OVCAR-4 ovarian, in the assay on A498 renal and with SW-620 colon was over 100 µM each time.

Turning to `CC(=O)OC1Oc2cc(C)c(C)cc2-c2oc(=O)c(-c3ccc(F)cc3)cc21` (centres undefined), the GI50 with OVCAR-5 ovarian is 6.3 µM; in the assay on KM12 colon it was 3.55 µM; in the assay on A549 NSCLC, 4.79 µM; with OVCAR-3 ovarian, 3.99 µM; in the assay on EKVX NSCLC it was 5.23 µM; in the assay with BT-549 breast it was 7.76 µM. The GI50 in the assay with ACHN renal is 11.9 µM; in the assay on OVCAR-4 ovarian, 11.3 µM; in the assay with A498 renal, 5.06 µM; in the assay with SW-620 colon, 3.87 µM. Besides, the TGI was over 100 µM in the assay with OVCAR-5 ovarian; 22.4 µM in the assay with KM12 colon; over 100 µM in the assay on A549 NSCLC; 16.6 µM with OVCAR-3 ovarian; over 100 µM in the assay with EKVX NSCLC; 45.9 µM with BT-549 breast. For the same compound, the TGI was over 100 µM with ACHN renal, 63.9 µM with OVCAR-4 ovarian, 67.4 µM in the assay with A498 renal and 28.8 µM in the assay on SW-620 colon.

As for `CC(C)[C@@H](C(=O)N1CCC[C@H]1C(=O)OCc1ccccc1)N(C)C(=O)[C@H](C(C)C)N(C)C(=O)[C@H](Cc1ccccc1)N(C)C(=O)[C@H](NC(=O)OC(C)(C)C)C(C)C` (Boc-[dV][NMeF][NMeV][NMeV]P-OBn), the TGI in the assay with OVCAR-5 ovarian is over 100 µM; in the assay on KM12 colon it was over 100 µM; in the assay on A549 NSCLC it was over 100 µM; with OVCAR-3 ovarian it was over 100 µM; with EKVX NSCLC, over 100 µM; with BT-549 breast, over 50 µM. Further, the TGI was over 100 µM in the assay on ACHN renal; over 100 µM in the assay on OVCAR-4 ovarian; over 100 µM in the assay on A498 renal; > 50 µM and 26.7 µM in the assay with SW-620 colon. The GI50 with KM12 colon is over 100 µM; in the assay with A549 NSCLC, over 100 µM; in the assay with OVCAR-3 ovarian it was over 100 µM; in the assay on SW-620 colon, 12.5 µM.
